{
  "source": "paper PMC10605449",
  "about": "(Biosensors, 2023)",
  "key": {"[1]": {"molecular_target": "T1, DKC1(1-514) (Homo sapiens, UniProt O60832)", "T1 construct": "The cellular biotinylated His6-DKC1(1-514)-AviTag was immobilized using the approach described in Section 2.5.2; made in house; host or cells: E. coli BL21(DE3), co-expressed with BirA; soluble lysate used without purification", "T1 sequence (O60832 1-514)": "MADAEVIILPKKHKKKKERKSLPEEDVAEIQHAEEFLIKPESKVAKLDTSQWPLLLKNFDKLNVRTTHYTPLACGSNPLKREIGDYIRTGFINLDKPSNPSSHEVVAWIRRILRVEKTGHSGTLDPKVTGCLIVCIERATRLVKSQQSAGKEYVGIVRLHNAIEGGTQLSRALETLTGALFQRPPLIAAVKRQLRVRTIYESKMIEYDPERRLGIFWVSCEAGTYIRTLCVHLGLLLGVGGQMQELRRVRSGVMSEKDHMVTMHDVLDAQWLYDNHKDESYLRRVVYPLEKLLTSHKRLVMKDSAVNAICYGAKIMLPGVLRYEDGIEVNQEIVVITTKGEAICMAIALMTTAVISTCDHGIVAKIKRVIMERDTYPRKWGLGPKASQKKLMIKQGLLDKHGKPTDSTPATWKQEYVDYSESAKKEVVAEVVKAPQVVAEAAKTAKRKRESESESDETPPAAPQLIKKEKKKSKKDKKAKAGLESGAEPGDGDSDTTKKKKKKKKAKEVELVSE", "test": "SPR Extract2Chip, cellular biotinylated DKC1(1-514), RuvBL1/RuvBL2 injected", "format": "binding", "method": "The cellular biotinylation of the DKC1(1-514) protein followed the same approach as that described for CypD. DKC1(1-514) was expressed in BL21(DE3) in LB media and induced with 500 µM IPTG overnight at 18 °C. The PD-10 Desalting column was equilibrated with buffer U (50 mM HEPES pH 6.5, 750 mM KCl, 0.5 mM EDTA, and 0.5 mM TCEP).\nThe cellular biotinylated His6-DKC1(1-514)-AviTag was immobilized using the approach described in Section 2.5.2. The soluble cell lysate was diluted to 15 µg/mL and coupled with 150 and 300 s injection times to reach 130 to 175 RU. […]\nAll sensorgrams were processed by first subtracting the binding response recorded from the control surface (reference spot, where only the avidin protein is immobilized), followed by subtraction of the buffer blank injection from the reaction spot. All datasets were fitted to a simple 1:1 Langmuir interaction model to determine the kinetic rate constants, and the interaction affinity was additionally calculated at a steady state when applicable. […] The experiments with immobilized purified proteins were performed on a Biacore 4000 (Cytiva, Uppsala, Sweden), and the interaction was evaluated using the provided Biacore 4000 evaluation software, while the experiments with soluble cell lysates on a Biacore T200 (Cytiva, Uppsala, Sweden) used the provided Biacore T200 evaluation software. […]"}, "[2]": {"molecular_target": "T2, YAP(2-268):TEAD1(209-436) interaction (Homo sapiens, UniProt P28347)", "T2 construct": "made in house; host or cells: YAP: E. coli BL21 Star (DE3) pRARE2 lysate", "T2 sequence (P28347 209-426)": "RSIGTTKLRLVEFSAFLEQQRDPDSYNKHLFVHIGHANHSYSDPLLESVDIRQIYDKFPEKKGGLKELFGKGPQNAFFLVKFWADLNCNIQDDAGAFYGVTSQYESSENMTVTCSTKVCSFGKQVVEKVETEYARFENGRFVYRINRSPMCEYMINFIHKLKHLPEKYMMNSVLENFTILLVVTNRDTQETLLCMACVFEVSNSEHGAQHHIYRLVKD", "test": "SPR, inhibition of YAP:TEAD1 interaction: TEAD1 pre-incubated with binder, injected over cellular biotinylated YAP(2-268)", "format": "binding", "details": "for Effect on YAP(2-268):TEAD1 interaction compared with TEAD1 apo-form: TEAD1 incubated with saturating concentration (30 µM) of binder", "description": "The cellular biotinylated YAP(2-268) protein, as well as the biotinylated YAP(61-100) peptide, were immobilized using a similar approach as that described previously. However, neutravidin protein (ThermoFisher Scientific) was used as the selected pre-coated surface on a CM5 Series S sensor chip instead of streptavidin. […] The remaining activated groups were then blocked with ethanolamine-HCl. […] The interaction analysis cycles consisted of 120 s of sample injection followed by 280 s of running buffer flow. The experiment was performed at 15 °C. To ensure that the surface integrity of the cellular biotinylated YAP remained intact and that the interaction kinetic profile with TEAD1 was restored, an additional injection of TEAD1 apo-form was performed at the end of each experiment. All sensorgrams were processed by first subtracting the binding response recorded from the control surface (reference spot, where only the avidin protein is immobilized), followed by subtraction of the buffer blank injection from the reaction spot. All datasets were fitted to a simple 1:1 Langmuir interaction model to determine the kinetic rate constants, and the interaction affinity was additionally calculated at a steady state when applicable. In cases where small molecules were present during the assay, a DMSO solvent correction (1–3%) was applied to account for variations in bulk signal and to achieve high-quality data. The experiments with immobilized purified proteins were performed on a Biacore 4000 (Cytiva, Uppsala, Sweden), and the interaction was evaluated using the provided Biacore 4000 evaluation software, while the experiments with soluble cell lysates on a Biacore T200 (Cytiva, Uppsala, Sweden) used the provided Biacore T200 evaluation software. All SPR experiments were performed in duplicate."}, "[3]": {"molecular_target": "T3, TEAD1 (Homo sapiens, UniProt P28347)", "T3 sequence (P28347 whole entry)": "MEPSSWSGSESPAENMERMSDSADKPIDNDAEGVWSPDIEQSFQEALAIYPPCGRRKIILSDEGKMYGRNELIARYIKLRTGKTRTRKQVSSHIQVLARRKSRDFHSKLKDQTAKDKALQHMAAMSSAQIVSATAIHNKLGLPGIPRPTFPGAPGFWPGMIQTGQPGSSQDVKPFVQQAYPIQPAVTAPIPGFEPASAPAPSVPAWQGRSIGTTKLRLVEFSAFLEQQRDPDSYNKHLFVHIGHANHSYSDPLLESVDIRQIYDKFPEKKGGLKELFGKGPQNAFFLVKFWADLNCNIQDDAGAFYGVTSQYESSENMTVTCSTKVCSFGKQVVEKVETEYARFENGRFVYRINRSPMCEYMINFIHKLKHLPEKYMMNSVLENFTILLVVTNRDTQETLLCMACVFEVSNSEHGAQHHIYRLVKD", "test": "Binary complex formation of TEAD1 to TEAD binders, biochemical assays", "details": "data not shown"}, "[4]": {"molecular_target": "T3, TEAD1", "test": "Binary complex formation of TEAD1 to TEAD binders, SPR", "format": "binding", "details": "data not shown"}, "[5]": {"molecular_target": "T4, His6-RuvBL1(1-456)/RuvBL2(1-463) (UniProt Q9Y265 1-456; Q9Y230 1-463)", "T4 construct": "RuvBL1, residues 1-456; RuvBL2, residues 1-463; also called RuvBL1/RuvBL2; AAA+ ATPases RuvBL1/RuvBL2; not shown: His6, N-terminal, kept", "T4 sequence (Q9Y265 whole entry, chain 1 of 2, the tested form may be a part)": "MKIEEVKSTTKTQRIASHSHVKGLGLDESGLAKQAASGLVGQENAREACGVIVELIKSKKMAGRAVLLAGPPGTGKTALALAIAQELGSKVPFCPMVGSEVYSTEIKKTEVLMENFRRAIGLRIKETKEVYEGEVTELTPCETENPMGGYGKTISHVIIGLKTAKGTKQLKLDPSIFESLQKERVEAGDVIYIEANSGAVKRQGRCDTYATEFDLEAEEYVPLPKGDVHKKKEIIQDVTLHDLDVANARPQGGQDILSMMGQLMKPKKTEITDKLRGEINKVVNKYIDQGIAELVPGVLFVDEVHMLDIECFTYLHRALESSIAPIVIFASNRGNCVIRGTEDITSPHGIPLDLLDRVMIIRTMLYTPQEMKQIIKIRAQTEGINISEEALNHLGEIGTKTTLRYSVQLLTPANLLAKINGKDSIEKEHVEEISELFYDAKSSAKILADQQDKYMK", "T4 sequence (Q9Y230 whole entry, chain 2 of 2, the tested form may be a part)": "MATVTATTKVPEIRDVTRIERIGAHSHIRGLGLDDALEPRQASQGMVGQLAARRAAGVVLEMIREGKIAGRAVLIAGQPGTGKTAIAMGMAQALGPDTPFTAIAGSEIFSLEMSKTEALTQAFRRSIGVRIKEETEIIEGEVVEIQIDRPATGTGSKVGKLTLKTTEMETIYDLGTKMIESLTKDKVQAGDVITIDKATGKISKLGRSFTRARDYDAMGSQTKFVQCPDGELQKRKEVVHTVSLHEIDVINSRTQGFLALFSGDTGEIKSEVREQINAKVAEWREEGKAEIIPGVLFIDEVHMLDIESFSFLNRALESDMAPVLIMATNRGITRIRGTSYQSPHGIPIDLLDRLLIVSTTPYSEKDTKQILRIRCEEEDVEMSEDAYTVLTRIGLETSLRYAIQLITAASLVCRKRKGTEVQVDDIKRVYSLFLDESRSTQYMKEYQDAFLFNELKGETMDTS", "test": "SPR; cellular biotinylated His6-DKC1(1-514)-AviTag captured from soluble cell lysate (130 to 175 RU) on neutravidin-coated CM5 chip; RuvBL1/RuvBL2 complexes injected, 10 concentrations, 2-fold series from 0.05 µM; 20 mM NaKPi pH 7.5, 150 mM NaCl, 5 mM MgCl2, 1 mM DTT, 0.05% Tween 20; 25 °C; 1:1 Langmuir fit", "details": "one partner purified"}, "[6]": {"details": "TEAD1 incubated with 30 µM binder 18 h at 30 °C, 15 °C"}},
  "data": [
    {"molecule": "RuvBL1_D302N, RuvBL2_D299N: ATP hydrolysis RuvBL1/RuvBL2 mutant", "values": [
      {"measurement": "Interaction with immobilized DKC1(1-514)", "setting": "[1]; compared with RuvBL1(1-456)/RuvBL2(1-463), partly data not shown", "value": "Identical results"}
    ]},
    {"molecule": "O=C(CCl)c1ccccc1Nc1cccc(C(F)(F)F)c1", "note": "[TED-347]", "values": [
      {"measurement": "ka ± SD of YAP(2-268):TEAD1 interaction in presence of binder", "setting": "[2]; [6]", "value": "1.2e+06 ± 120000", "unit": "M⁻¹ s⁻¹"},
      {"measurement": "kd ± SD of YAP(2-268):TEAD1 interaction in presence of binder", "setting": "[2]; [6]", "value": "0.34 ± 0.074", "unit": "s⁻¹"},
      {"measurement": "Effect on YAP(2-268):TEAD1 interaction compared with TEAD1 apo-form", "setting": "[2]", "value": "decrease in affinity"},
      {"measurement": "IC50", "setting": "[3]", "value": 340, "unit": "nM"},
      {"measurement": "Kd", "setting": "[4]", "value": 1400, "unit": "nM"}
    ]},
    {"molecule": "Nc1ncnc2c1ncn2[C@@H]1O[C@H](CO[P@](=O)(O)O[P@](=O)(O)O[P@@](=O)(O)S)[C@@H](O)[C@H]1O", "note": "[ATPγS]", "values": [
      {"measurement": "Effect on DKC1:RuvBL1/RuvBL2 interaction", "setting": "[1]; saturating concentrations, data not shown", "value": "Identical results"}
    ]},
    {"molecule": "CCCC[C@@H]1NC(=O)[C@H](CCCCN)NC(=O)[C@H](CCCNC(=N)N)NC(=O)[C@H](CC(C)C)NC(=O)[C@@H](NC(=O)[C@H](Cc2cccc(Cl)c2)NC(=O)[C@@H]2CCCN2C(=O)[C@@H](NC(C)=O)C(C)C)CCSSC[C@@H](C(=O)N[C@@H](CCCCN)C(=O)N2CCC[C@H]2C(=O)N2CCC[C@H]2C(=O)N[C@@H](CCC(=O)O)C(N)=O)NC(=O)[C@H](Cc2ccccc2)NC(=O)[C@H](CO)NC(=O)[C@H](C)NC(=O)[C@@H]2CCCN2C1=O", "note": "[Peptide 17]", "values": [
      {"measurement": "Effect on YAP(2-268):TEAD1 interaction compared with TEAD1 apo-form", "setting": "[2]", "value": "significantly suppressed the interaction"}
    ]},
    {"molecule": "Cellular biotinylated H/ACA ribonucleoprotein complex subunit Dyskerin pseudouridine synthase 1, His6-DKC1(1-514)-AviTag (natural protein, UniProt O60832 1-514, looked up, biotin on the AviTag (BirA, in the cells), Dyskerin pseudouridine synthase 1 (DKC1), residues 1-514; Captured from the lysate on a neutravidin-coated CM5 chip by the biotinylated AviTag; also called DCK1(1-514); DCK1(1-541); source: E. coli BL21(DE3), co-expressed with BirA-FLAG and D-biotin, in cleared lysate (desalted, not purified); not shown: His6, N-terminal, kept; AviTag, C-terminal, kept) MADAEVIILPKKHKKKKERKSLPEEDVAEIQHAEEFLIKPESKVAKLDTSQWPLLLKNFDKLNVRTTHYTPLACGSNPLKREIGDYIRTGFINLDKPSNPSSHEVVAWIRRILRVEKTGHSGTLDPKVTGCLIVCIERATRLVKSQQSAGKEYVGIVRLHNAIEGGTQLSRALETLTGALFQRPPLIAAVKRQLRVRTIYESKMIEYDPERRLGIFWVSCEAGTYIRTLCVHLGLLLGVGGQMQELRRVRSGVMSEKDHMVTMHDVLDAQWLYDNHKDESYLRRVVYPLEKLLTSHKRLVMKDSAVNAICYGAKIMLPGVLRYEDGIEVNQEIVVITTKGEAICMAIALMTTAVISTCDHGIVAKIKRVIMERDTYPRKWGLGPKASQKKLMIKQGLLDKHGKPTDSTPATWKQEYVDYSESAKKEVVAEVVKAPQVVAEAAKTAKRKRESESESDETPPAAPQLIKKEKKKSKKDKKAKAGLESGAEPGDGDSDTTKKKKKKKKAKEVELVSE", "values": [
      {"measurement": "Kd", "setting": "[5]", "value": 23, "unit": "nM"},
      {"measurement": "koff", "setting": "[5]", "value": 0.015, "unit": "s⁻¹"},
      {"measurement": "kon", "setting": "[5]", "value": 650000, "unit": "M⁻¹ s⁻¹"}
    ]}
  ]
}
